Our source for the IC50 values is patent US11440913B2, “Aminoimidazopyridazines as kinase inhibitors” (BRISTOL-MYERS SQUIBB COMPANY, priority 2017, dated 2022).

For experiment [1], the system named is MLKL phosphorylation in HT29-L23 human colorectal adenocarcinoma cells. The experiment can be described thus: MLKL Phosphorylation High-Content Assay. The settings on record: Homo sapiens, 6 h, necroptosis induced with TNFα, SMAC mimetic and Z-VAD, read-out: pMLKL (IC50). Type of experiment: cell-based. Put shortly:
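HT29-L23 cells pretreated 30 min at 37 °C with compound (6.25 to 0.106 μM final), then necroptosis induced with TNFα 35 ng/mL, SMAC mimetic 700 nM and Z-VAD 140 nM for 6 h. Fixed cells immunostained for MLKL pS358 and imaged; IC50 and Ymax from 4-parameter logistic fit.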

The target of experiment [2] is His-GST-TVMV-hRIPK1(1-324) (Homo sapiens (Human), UniProt Q13546). The experiment can be described thus: RIPK1 HTRF Binding Assay. The settings on record: HTRF binding, 1 h at rt; read-out: RIPK1 (IC50). Put shortly:
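HTRF probe-displacement binding: 1 nM His-GST-TVMV-hRIPK1(1-324) (baculovirus construct), 90.6 nM probe, 0.2 nM anti-GST-Tb in 20 mM HEPES, 10 mM MgCl2, 0.015% Brij-35, 4 mM DTT, 0.05 mg/mL BSA. Incubated 1 h at rt; FRET 520/495 nm ratio, inhibition relative to DMSO-only wells.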
Background: In TR-FRET formats the signal depends on donor and acceptor labels being close together.

Chain of His-GST-TVMV-hRIPK1(1-324) (Q13546 1-324): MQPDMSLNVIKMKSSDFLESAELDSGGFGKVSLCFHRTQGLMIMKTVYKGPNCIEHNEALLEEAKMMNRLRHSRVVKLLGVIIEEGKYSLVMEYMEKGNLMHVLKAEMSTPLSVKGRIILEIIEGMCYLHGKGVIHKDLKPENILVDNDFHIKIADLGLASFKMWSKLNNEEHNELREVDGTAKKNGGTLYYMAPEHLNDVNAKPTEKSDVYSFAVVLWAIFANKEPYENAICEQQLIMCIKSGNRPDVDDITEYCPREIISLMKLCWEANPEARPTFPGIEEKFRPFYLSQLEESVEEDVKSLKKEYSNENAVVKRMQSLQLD

For the compound `CC(=O)Nc1cn2nc(-c3cnc(C)c(C(=O)NCC(C)(O)Cc4ccc(F)cc4)c3)ccc2n1` (centres unmarked) [Example 356, 5-{2-acetamidoimidazo[1,2-b]pyridazin-6-yl}-N-[3-(4-fluorophenyl)-2-hydroxy-2-methylpropyl]-2-methylpyridine-3-carboxamide], the IC50 in experiment [1] is 485 nM; in experiment [2] it was 150 nM.
Taken in the same sequence, the figures for `CC(=O)Nc1cn2nc(-c3cnc(C)c(C(=O)N4CCCC(O)(Cc5ccc(F)cc5)C4)c3)ccc2n1` (centres unmarked) [Example 357, N-[6-(5-{3-[(4-fluorophenyl)methyl]-3-hydroxypiperidine-1-carbonyl}-6-methylpyridin-3-yl)imidazo[1,2-b]pyridazin-2-yl] acetamide] were 219 nM and 335 nM.
The matching figures for `CC(=O)Nc1cn2nc(-c3cc(F)c(C)c(C(=O)NCc4cc(OC(F)(F)F)ccc4F)c3)ccc2n1` [Example 359, 5-{2-acetamidoimidazo [1,2-b]pyridazin-6-yl}-3-fluoro-N-{[2-fluoro-5-(trifluoromethoxy)phenyl]methyl}-2-methylbenzamide]: 5 nM and 78 nM.
Consider `CC(=O)Nc1cn2nc(-c3cc(F)c(C)c(C(=O)N[C@@H](C)c4cc(OC(F)(F)F)ccc4F)c3)ccc2n1` [Example 360, 5-{2-acetamidoimidazo [1,2-b]pyridazin-6-yl}-3-fluoro-N-[(1S)-1-[2-fluoro-5-(trifluoromethoxy)phenyl]ethyl]-2-methylbenzamide], for which the IC50 in experiment [1] is 9 nM; in experiment [2], 6 nM.
As to `CC(=O)Nc1cn2nc(-c3cc(F)c(C)c(C(=O)NCc4cccc(OC(F)(F)F)c4F)c3)ccc2n1` [Example 361, 5-{2-acetamidoimidazo [1,2-b]pyridazin-6-yl}-3-fluoro-N-{[2-fluoro-3-(trifluoromethoxy)phenyl]methyl}-2-methylbenzamide], the IC50 in experiment [1] stood at 135 nM; in experiment [2], 42 nM.
The matching figures for `Cc1c(F)cc(-c2ccc3nc(NC(=O)CN(C)C)cn3n2)cc1C(=O)NCC[C@H](O)c1ccc(Cl)cc1` [Example 362, N-[(3S)-3-(4-chlorophenyl)-3-hydroxypropyl]-5-{2-[2-(dimethylamino)acetamido]imidazo[1,2-b]pyridazin-6-yl}-3-fluoro-2-methylbenzamide]: 5 nM and 6 nM.
Taken in the same sequence, the figures for `CNCC(=O)Nc1cn2nc(-c3cc(F)c(C)c(C(=O)NCC[C@H](O)c4ccc(Cl)cc4)c3)ccc2n1` [Example 363, N-[(3S)-3-(4-chlorophenyl)-3-hydroxypropyl]-3-fluoro-2-methyl-5-{2-[2-(methylamino)acetamido]imidazo[1,2-b]pyridazin-6-yl}benzamide] were 47 nM and 65 nM.
The matching figures for `CC(=O)Nc1cn2nc(-c3cc(F)c(C)c(C(=O)NCc4ccccc4Oc4ccccc4)c3)ccc2n1` [Example 364, 5-{2-acetamidoimidazo [1,2-b]pyridazin-6-yl}-3-fluoro-2-methyl-N-[(2-phenoxyphenyl)methyl] benzamide]: 7 nM and 7 nM.
Take `CC(=O)Nc1cn2nc(-c3cc(F)c(C)c(C(=O)NCc4c(F)cccc4C(=O)N4CCC(F)(F)C4)c3)ccc2n1` [Example 365, N-{[2-(3,3-difluoropyrrolidine-1-carbonyl)-6-fluorophenyl]methyl}-5-{2-acetamidoimidazo [1,2-b]pyridazin-6-yl}-3-fluoro-2-methylbenzamide]: the IC50 in experiment [1] turned out to be 116 nM; in experiment [2], 37 nM.
With `CC(=O)Nc1cn2nc(-c3cc(F)c(F)c(C(=O)NCc4cc(OC(F)(F)F)ccc4F)c3)ccc2n1` [Example 366, 5-{2-acetamidoimidazo [1,2-b]pyridazin-6-yl}-2,3-difluoro-N-{[2-fluoro-5-(trifluoromethoxy)phenyl]methyl} benzamide], the IC50 in experiment [1] turned out to be 123 nM; in experiment [2], 13 nM.
Taken in the same sequence, the figures for `CC(=O)Nc1cn2nc(-c3cc(F)c(F)c(C(=O)N[C@H](C)c4cc(OC(F)(F)F)ccc4F)c3)ccc2n1` [Example 367, 5-{2-acetamidoimidazo [1,2-b]pyridazin-6-yl}-2,3-difluoro-N-[(1R)-1-[2-fluoro-5-(trifluoromethoxy)phenyl]ethyl] benzamide] were 194 nM and 56 nM.
Taken in the same sequence, the figures for `CC(=O)Nc1cn2nc(-c3c(F)c(F)cc(C(=O)NCc4cc(OC(F)(F)F)ccc4F)c3F)ccc2n1` [Example 368, 3-{2-acetamidoimidazo [1,2-b]pyridazin-6-yl}-2,4,5-trifluoro-N-{[2-fluoro-5-(trifluoromethoxy)phenyl]methyl} benzamide] were 31 nM and 25 nM.
`CC(=O)Nc1cn2nc(-c3cc(F)cc(C(=O)NCC[C@@H](O)c4ccc(Cl)cc4)c3)ccc2n1` [Example 370, N-[(3R)-3-(4-chlorophenyl)-3-hydroxypropyl]-3-{2-acetamidoimidazo [1,2-b]pyridazin-6-yl}-5-fluorobenzamide]: the IC50 in experiment [1] was 210 nM; in experiment [2], 34 nM.
Regarding `COc1c(F)cc(-c2ccc3nc(NC(C)=O)cn3n2)cc1C(=O)NCc1cc(OC(F)(F)F)ccc1F` [Example 371, 5-{2-acetamidoimidazo [1,2-b]pyridazin-6-yl}-3-fluoro-N-{[2-fluoro-5-(trifluoromethoxy)phenyl]methyl}-2-methoxybenzamide], the IC50 in experiment [1] is 15 nM; in experiment [2], 5 nM.
Taken in the same sequence, the figures for `CC(=O)Nc1cn2nc(-c3cc(C(=O)NCc4cc(C(F)(F)F)ccc4F)cc(F)c3C)ccc2n1` [Example 372, 3-{2-acetamidoimidazo [1,2-b]pyridazin-6-yl}-5-fluoro-N-{[2-fluoro-5-(trifluoromethyl)phenyl]methyl}-4-methylbenzamide] were 122 nM and 13 nM.
The matching figures for `CC(=O)Nc1cn2nc(-c3cc(C(=O)NCC[C@@H](O)c4ccc(Cl)cc4)cc(F)c3C)ccc2n1` [Example 373, N-[(3R)-3-(4-chlorophenyl)-3-hydroxypropyl]-3-{2-acetamidoimidazo [1,2-b]pyridazin-6-yl}-5-fluoro-4-methylbenzamide]: 51 nM and 11 nM.
The matching figures for `COc1ccc(-c2ccc3nc(NC(C)=O)cn3n2)c(F)c1C(=O)N[C@@H](C)c1cc(OC(F)(F)F)ccc1F` [Example 375, 3-{2-acetamidoimidazo [1,2-b]pyridazin-6-yl}-2-fluoro-N-[(1S)-1[2-fluoro-5-(trifluoromethoxy)phenyl]ethyl]-6-methoxybenzamide]: 3 nM and 12 nM.
For `COc1ccc(-c2ccc3nc(NC(C)=O)cn3n2)c(F)c1C(=O)NCc1cc(F)ccc1C(=O)N1CCC(F)(F)C1` [Example 376], the IC50 in experiment [1] and in experiment [2] was 9 nM each time.
For the compound `COc1ccc(-c2ccc3nc(NC(C)=O)cn3n2)c(F)c1C(=O)NCc1ccccc1OCC1CC1` [Example 377, N-{[2-(cyclopropylmethoxy)phenyl]methyl}-3-{2-acetamidoimidazo [1,2-b]pyridazin-6-yl}-2-fluoro-6-methoxybenzamide], the IC50 turned out to be 135 nM in experiment [1] and 67 nM in experiment [2].
The matching figures for `[2H]C([2H])([2H])[C@@H](NC(=O)c1c(OC)ccc(-c2ccc3nc(NC(C)=O)cn3n2)c1F)c1cc(OC(F)(F)F)ccc1F` [Example 378, 3-{2-acetamidoimidazo [1,2-b]pyridazin-6-yl}-2-fluoro-N-[(1R)-1-[2-fluoro-5-(trifluoromethoxy)phenyl](2,2,2-Â^2Hâ,f)ethyl]-6-methoxybenzamide]: 1 nM and 6 nM.
The matching figures for `CC(=O)Nc1cn2nc(-c3ccc(F)c(C(=O)N[C@@H](C)c4cc(OC(F)(F)F)ccc4F)c3F)ccc2n1` [Example 379, 3-{2-acetamidoimidazo [1,2-b]pyridazin-6-yl}-2,6-difluoro-N-[(1S)-1-[2-fluoro-5-(trifluoromethoxy)phenyl]ethyl] benzamide]: 5 nM and 1 nM.
Taken in the same sequence, the figures for `[2H]C([2H])([2H])[C@@H](NC(=O)c1c(F)ccc(-c2ccc3nc(NC(C)=O)cn3n2)c1F)c1cc(OC(F)(F)F)ccc1F` [Example 380, 3-{2-acetamidoimidazo [1,2-b]pyridazin-6-yl}-2,6-difluoro-N-[(1R)-1-[2-fluoro-5-(trifluoromethoxy)phenyl](2,2,2-Â^2Hâ,f)ethyl} benzamide] were 9 nM and 3 nM.
As for `CC(=O)Nc1cn2nc(-c3ccc(F)c(C(=O)NCc4cc(F)ccc4C(=O)N4CCC(F)(F)CC4)c3F)ccc2n1` [Example 381, N-{[2-(4,4-difluoropiperidine-1-carbonyl)-5-fluorophenyl]methyl}-3-{2-acetamidoimidazo [1,2-b]pyridazin-6-yl}-2,6-difluorobenzamide], the IC50 was 74 nM in experiment [1] and 8 nM in experiment [2].
The matching figures for `CC(=O)Nc1cn2nc(-c3cc(C(=O)NCC[C@@H](O)c4ccc(Cl)cc4)c(C)cc3C)ccc2n1` [Example 382, N-[(3R)-3-(4-chlorophenyl)-3-hydroxypropyl]-5-{2-acetamidoimidazo [1,2-b]pyridazin-6-yl}-2,4-dimethylbenzamide]: 2 nM and 4 nM.
The matching figures for `CC(=O)Nc1cn2nc(-c3cc(C(=O)NCC[C@H](O)c4ccc(Cl)cc4)c(C)cc3C)ccc2n1` [Example 383, N-[(3S)-3-(4-chlorophenyl)-3-hydroxypropyl]-5-{2-acetamidoimidazo [1,2-b]pyridazin-6-yl}-2,4-dimethylbenzamide]: 3 nM and 3 nM.

One may read the IC50 as the concentration at which inhibition is half-maximal.
